Literature values in patent publication US10736322B2, “Aqueous concentrated herbicidal compositions containing glyphosate salts and dicamba salts” (priority 2012, dated 2020).

Conditions: 25° C.

For `O=C(O)CNCP(=O)(O)O` [Glyphosate acid, N-(phosphonomethyl)glycine], the solubility in water is listed as 1.16 wt. %.
